Key:
CSF-1R (Fms, active) = molecular target: T1, CSF-1R (Fms, active) (Homo sapiens, UniProt P07333); assay: Evaluation of CSF-1R inhibitory activity by TR-FRET method (HTRF KinEASE-TK kit); type: biochemical; conditions: for IC50: TR-FRET method, phosphorylation of substrate peptide, enzyme 0.05 μg/mL; for inhibitory activities against CSF-1R (in words): statement referring to the Test Examples
T1 construct: purchased Eurofins DiscoverX Products, LLC 14-551
Method: The CSF-1R inhibitory activity of an inventive compound was evaluated by a TR-FRET method using phosphorylation of a substrate peptide of CSF-1R as the index.
The inventive compound was dissolved in dimethyl sulfoxide sterilized by filtration to prepare a 10 μmol/L solution. This solution was dispensed using an acoustic noncontact type nanoliter dispenser (Echo 550, LABCYTE Inc.) such that the final concentrations were within a range from 0.25 to 180 nmol/L.
The assay was performed using an HTRF™ KinEASE™-TK kit (Cisbio Bioassays, 62TK0PEC) by the procedure in accordance with the manual (62TK0PEC rev04(2009)). In the assay, a 384-well plate (Greiner 784076 Black 384 well, Small volume, Greiner Bio-One International GmbH) was used. The enzyme was Fms, active (14-551, Eurofins DiscoverX Products, LLC), which was prepared such that the final concentration was 0.05 μg/mL. TR-FRET measurement (fluorescence of 620 nm and 665 nm) was performed using an HTRF-dedicated microplate reader (K-101, Kyoritsu Radio Service Co., Ltd.). The proportion of the fluorescence quantity at each wavelength as the index of phosphorylation [((quantity of 665 nm fluorescence)/(quantity of 620 nm fluorescence))×10,000] was calculated, and the IC50 value was determined by statistical treatment of the proportion of the fluorescence quantity at each compound concentration.

[1] = system: human non-small cell lung cancer cell line NCI-H460; assay: Antitumor effect in human non-small cell lung cancer cell line NCI-H460 subcutaneously transplanted nude mouse model; type: in vivo, BALB/c-nu/nu mouse; conditions: 300 mg/kg by gavage
Method: The antitumor effect of the inventive compound was examined using a human non-small cell lung cancer cell line NCI-H460 subcutaneously transplanted nude mouse model.
A cell culture medium was prepared by adding 5.6 mL of Penicillin-Streptomycin (Sigma-Aldrich Co. LLC), 56 mL of FBS (MP Biomedicals), 5.6 mL of 1 mol/L HEPES (Sigma-Aldrich Co. LLC), 5.6 mL of 100 mmol/L Sodium Pyruvate (Life Technologies), and 1.4 g of D-(+)-Glucose (Wako Pure Chemical Industries, Ltd.) to a RPMI1640 culture medium (Sigma-Aldrich Co. LLC). NCI-H460 cells (American Type Culture Collection) were cultured using the prepared culture medium at 37° C. in a 5% CO2 incubator.
The cultured NCI-H460 cells were suspended in PBS. […]
From the day of grouping, the administration solutions were administered by gavage to mice transplanted with cancer cells (15 mice in each group) for the total of 22 days, once a day on the day of the grouping and the last day and twice a day on other days. […] The administration volume was calculated from the last body weight of each.
The tumor volume of each mouse was calculated by the following equation, and the antitumor effect was evaluated using the tumor volume as the index. […]

T1 sequence (P07333 20-972): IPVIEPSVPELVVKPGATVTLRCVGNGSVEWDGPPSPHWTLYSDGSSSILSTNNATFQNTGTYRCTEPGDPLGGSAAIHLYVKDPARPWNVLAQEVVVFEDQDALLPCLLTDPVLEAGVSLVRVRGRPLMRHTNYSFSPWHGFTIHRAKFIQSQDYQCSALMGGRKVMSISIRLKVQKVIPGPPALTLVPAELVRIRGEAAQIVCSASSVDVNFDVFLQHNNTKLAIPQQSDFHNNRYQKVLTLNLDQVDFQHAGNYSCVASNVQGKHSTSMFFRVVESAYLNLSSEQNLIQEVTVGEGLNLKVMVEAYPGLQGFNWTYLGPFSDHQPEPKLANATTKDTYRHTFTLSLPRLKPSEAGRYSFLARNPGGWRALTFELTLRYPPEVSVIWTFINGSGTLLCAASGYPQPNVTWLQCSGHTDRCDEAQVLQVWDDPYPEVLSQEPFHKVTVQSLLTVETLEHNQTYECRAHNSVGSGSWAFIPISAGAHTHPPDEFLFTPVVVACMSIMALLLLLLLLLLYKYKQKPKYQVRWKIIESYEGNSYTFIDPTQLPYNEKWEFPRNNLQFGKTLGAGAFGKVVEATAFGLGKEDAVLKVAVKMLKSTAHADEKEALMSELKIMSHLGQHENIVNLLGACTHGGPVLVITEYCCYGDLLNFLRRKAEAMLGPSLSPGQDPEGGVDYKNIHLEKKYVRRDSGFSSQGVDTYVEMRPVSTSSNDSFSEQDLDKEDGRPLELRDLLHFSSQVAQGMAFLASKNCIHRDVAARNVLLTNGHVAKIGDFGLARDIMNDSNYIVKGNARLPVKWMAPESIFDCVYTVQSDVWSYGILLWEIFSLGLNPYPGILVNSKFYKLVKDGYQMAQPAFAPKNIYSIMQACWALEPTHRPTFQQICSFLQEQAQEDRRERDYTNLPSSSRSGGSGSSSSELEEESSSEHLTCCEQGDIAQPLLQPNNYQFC

| Structure (SMILES) | IC50 (CSF-1R (Fms, active)) [µM] | inhibitory activities against CSF-1R (in words) (CSF-1R (Fms, active)) | Tumor growth inhibition rate (TGI %) ([1]; 22 days, last administration day, NCI-H460 nude mouse) [%] | tumor growth inhibition (in words, FIG. 1) ([1]; tumor volume vs Control group, Student's t test) |
| --- | --- | --- | --- | --- |
| COc1ccc(-c2[nH]c3ncc(C#CCCO)cc3c2CN2C3CCC2COC3)cc1 [Example 2, 4-(3-((3-oxa-8-azabicyclo[3.2.1]octan-8-yl)methyl)-2-(4-methoxyphenyl)-1H-pyrrolo[2,3-b]pyridin-5-yl)but-3-yn-1-ol] | 0.01 to 0.03 | potent inhibitory activities |  |  |
| CC(=O)N1CC=C(c2[nH]c3ncc(C#CCCO)cc3c2CC(C)C)CC1 [Example 7, 1-(4-(5-(4-hydroxybut-1-yn-1-yl)-3-isobutyl-1H-pyrrolo[2,3-b]pyridin-2-yl)-3,6-dihydropyridin-1(2H)-yl)ethan-1-one] | < 0.01 | potent inhibitory activities |  |  |
| CC(=O)N1CC=C(c2[nH]c3ncc(C#CCCO)cc3c2CC2CCOCC2)CC1 [Example 8, 1-(4-(5-(4-hydroxybut-1-yn-1-yl)-3-((tetrahydro-2H-pyran-4-yl)methyl)-1H-pyrrolo[2,3-b]pyridin-2-yl)-3,6-dihydropyridin-1(2H)-yl)ethan-1-one] | < 0.01 | potent inhibitory activities |  |  |
| COc1cc(-c2[nH]c3ncc(C#CCCO)cc3c2CN2C3CCC2COC3)ccc1OC1COC1 [Example 6, 4-(3-((3-oxa-8-azabicyclo[3.2.1]octan-8-yl)methyl)-2-(3-methoxy-4-(oxetan-3-yloxy)phenyl)-1H-pyrrolo[2,3-b]pyridin-5-yl)but-3-yn-1-ol] | 0.01 to 0.03 | potent inhibitory activities |  |  |

The next lines start with results.

| IC50 (CSF-1R (Fms, active)) [µM] | inhibitory activities against CSF-1R (in words) (CSF-1R (Fms, active)) | Structure (SMILES) | Tumor growth inhibition rate (TGI %) ([1]; 22 days, last administration day, NCI-H460 nude mouse) [%] | tumor growth inhibition (in words, FIG. 1) ([1]; tumor volume vs Control group, Student's t test) |
| --- | --- | --- | --- | --- |
| < 0.01 | potent inhibitory activities | OCCC#Cc1cnc2[nH]c(-c3ccc(N4CCOCC4)cc3)c(CN3CCOCC3)c2c1 [Example 4, 4-(3-(morpholinomethyl)-2-(4-morpholinophenyl)-1H-pyrrolo[2,3-b]pyridin-5-yl)but-3-yn-1-ol] |  |  |
| < 0.01 | potent inhibitory activities | OCCC#Cc1cnc2[nH]c(-c3ccc(N4CCC(O)CC4)cc3)c(CN3CCOCC3)c2c1 [Example 5, 1-(4-(5-(4-hydroxybut-1-yn-1-yl)-3-(morpholinomethyl)-1H-pyrrolo[2,3-b]pyridin-2-yl)phenyl)piperidin-4-ol] |  |  |
| < 0.01 | potent inhibitory activities | COc1ccc(-c2[nH]c3ncc(C#CCCO)cc3c2CC2CCOCC2)cn1 [Example 9, 4-(2-(6-methoxypyridin-3-yl)-3-((tetrahydro-2H-pyran-4-yl)methyl)-1H-pyrrolo[2,3-b]pyridin-5-yl)but-3-yn-1-ol] |  |  |
| 0.03 to 0.1 | potent inhibitory activities | COc1ccc(-c2[nH]c3ncc(C#CCCO)cc3c2CN2CCOCC2)cc1 [Example 1, 4-(2-(4-methoxyphenyl)-3-(morpholinomethyl)-1H-pyrrolo[2,3-b]pyridin-5-yl)but-3-yn-1-ol] | 61 | significant tumor growth inhibition |
| 0.01 to 0.03 | potent inhibitory activities | COc1ccc(-c2[nH]c3ncc(C#CCCO)cc3c2CN2CCOCC2)cc1OC [Example 3, 4-(2-(3,4-dimethoxyphenyl)-3-(morpholinomethyl)-1H-pyrrolo[2,3-b]pyridin-5-yl)but-3-yn-1-ol] |  |  |

From patent US20220162206A1, “NOVEL AZAINDOLE DERIVATIVE” (KOWA COMPANY, LTD., priority 2019, published 2022)
